Experimental data reported in patent US8779002B2, “Methods for treating a variety of diseases and conditions, and compounds useful therefor” (Salk Institute for Biological Studies, priority 2007, dated 2014).
Read-outs that look alike come from different tables or passages of the source.

Tests used:
HT22 cells = assay: HT22 oxidative glutamate toxicity (oxytosis) assay; type: cell-based, mouse; conditions: for EC50: Mus musculus, HT-22
Experimental: FIG. 1D illustrates the results of an oxidative stress assay. HT22 cells were treated with 5 mM glutamate and different concentrations of two versions of curcumin derivatives. Cell viability was measured 24 hr later by the MTT assay (J. B. Davis and P. Maher, Protein kinase C activation inhibits glutamate-induced cytotoxicity in a neuronal cell line. Brain Res. 652 (1994) 169-173). Legend for FIG. 1A, FIG. 1B and FIG. 1D: x-x, Cmpd CNB-001, o-o, Cmpd J147.
Similar toxicity assays as described above are also conducted with invention compounds using HT22 cells in an assay for oxidative stress. After exposure with 1 mM, 2 mM, 2.5 mM, or 5 mM glutamate, cell viability is determined with the MTT assay.
HT22 hippocampal neurons are treated with 5 mM glutamate and increasing concentrations of invention compounds. Cell viability is measured 24 hr later by the MTT assay (Davis and Maher, Brain Res. 652:169-173 (1994)).

CaM Kinase II alpha = assay: CaM Kinase II activation; type: cell-based; design: key: + = positive result or enzyme activation
Experimental: Invention compounds have the ability to activate CaM Kinase II alpha, a key enzyme involved in memory formation.
To evaluate the ability of a test compound to activate CaM Kinase II alpha, HT22 hippocampal neurons or one week old cortical neurons from embryonic 18 day rats can be prepared according to published procedures (e.g., Soucek et al., Neuron 39:43-56 (2003) and Li et al., Neuron 19:453-463 (1997)). Thus, for example, suitable cells can be treated with 1-2 μM of an exemplary invention compound for a suitable amount of time (e.g., 15, 30, 60 or 120 minutes).
Cells are then lysed and applied to a suitable gel for separation (e.g., P81 phosphocellulose paper, polyacrylamide gel containing SDS, and the like). CaMKII activity can then be assayed using an antibody that recognizes phosphothreonine from both the alpha and beta chains of CaM Kinase II. Invention compounds promote an increase in CaMKII activity of 10% or greater.

Wistar rats = assay: Novel object recognition task in rats; type: in vivo, rat; conditions: for Recognition index, Mean: Wistar rats, n=8
Experimental: FIG. 6 illustrates the effect of galantamine, compounds CNB-001, J147, SK186 and SKI 87 on object recognition task in Wistar rats. The data represent mean±SEM. *p<0.05 compared with the vehicle control.
This model is based on the greater spontaneous exploration of a novel object, compared with a familiar object, shown by rodents (see Ennaceur and Delacour in Behav. Brain Res. 31:47 (1988)). Male Wister rats are assessed for cognitive ability in a test apparatus comprising an open-field arena placed in a sound-attenuated room under dimmed lighting. Images of the open-field are captured by digital camera, and viewed on a monitor in an adjoining room. Each rat is subjected to the procedure separately and care is taken to remove any olfactory/taste cues by cleaning the arena and test objects with alcohol between trials and rats.
Adult male Wistar rats were employed in all rat studies. Animals were placed in the experimental rooms at postnatal day 80 and assigned unique identification numbers (tail marked). Pairs were housed in polycarbonate cages with filter tops and acclimated for 3 days prior to commencing any studies. Animals were maintained in a 12 hour light/dark cycle with room temperature maintained at 22±2° C. with a relative humidity maintained approximately 50%. Food and water were provided ad libitum.
All animals were examined, handled, and weighed for a further two days prior to initiation of the study to assure adequate health and suitability and to minimize non-specific stress associated with manipulation. Each animal was randomly assigned across the treatment groups and balanced by cage numbers. The novel object recognition experiment was performed during the animal's light cycle phase. Drug treatments were balanced across days and animals were only used once
The following compounds were used for this study—Reference compound (Galantamine; 3 mg/kg) was dissolved in 0.9% saline and administered i.p. 1 hour pre-test at a dose volume of 1 ml/kg, and all test compounds were handled in solution, and were kept at −80° C. until use. All compounds were administered orally 60 min prior to training at a volume of 1 ml/kg body weight.
Following a 5-minute habituation period, each rat was placed into the test arena in the presence of two identical objects (plastic shapes). Each rat was placed facing the same direction at the same position in the arena, and the time spent actively exploring the objects during a 5-minute test period (T1) was recorded. The rat was returned to its home cage between tests. After 24 hours, each rat was again placed in the test arena for 5 minutes (T2) in the presence of one of the familiar objects and a novel object, and the time spent exploring both objects was again recorded. The presentation order and position of the objects (left/right) was randomized between rats to prevent bias from order or place preference. A preference index for each object, the ratio of the time spent exploring either the familiar object or the novel object over the total time spent exploring both objects (during retention session T2) was used to measure cognitive function.
Data were analyzed by a one-way analysis of variance (ANOVA) followed by post-hoc comparisons with Fisher Tests when appropriate. An effect was considered significant if p<0.05. Data in the following tables are presented as the mean and standard error to the mean.

[1] = Cell Culture (Table 2), read-out: Oxidative Glutamate Toxicity
[2] = 5 mg/kg orally 60 min prior to training
[3] = 10 mg/kg orally 60 min prior to training
[4] = 25 mg/kg orally 60 min prior to training

| SMILES | EC50 (HT22 cells; [1]) | HT22 cells that live (HT22 cells; glutamate, in the presence of Cmpd CNB-001 at 1 μM) | CaMKinase II (CaM Kinase II alpha) | Recognition index, Mean (Wistar rats; [2]) | Recognition index, Mean (Wistar rats; [3]) | Effect on recognition index (Wistar rats; 10 mg/kg, versus vehicle, p<0.05) | Recognition index, Mean (Wistar rats; [4]) | Fisher's PLSD for Recognition index, Mean Diff. (*vehicle, treatment) (Wistar rats; vehicle versus 5 mg/kg oral) | Fisher's PLSD for Recognition index, Mean Diff. (*vehicle, treatment) (Wistar rats; vehicle versus 10 mg/kg oral) | Fisher's PLSD for Recognition index, Mean Diff. (*vehicle, treatment) (Wistar rats; vehicle versus 25 mg/kg oral) | EC50 (HT22 cells; HT22 cells, following 5 mM glutamate exposure, MTT, read-out: EC50) | EC50 (HT22 cells; Oxidative glutamate toxicity (oxytosis), read-out: HT-22 EC50) |
| --- | --- | --- | --- | --- | --- | --- | --- | --- | --- | --- | --- | --- |
| COc1cc(/C=C/c2cc(/C=C/c3ccc(O)c(OC)c3)n(-c3ccccc3)n2)ccc1O [CNB-001] | 500 nM | over 90% | + | 63.663 | 77.964 | significantly increased | 45.226 | −11.741 | −26.042 | 6.697 | – | – |
| COc1cccc(/C=N/N(C(=O)C(F)(F)F)c2ccc(C)cc2C)c1 [Compound J147] | 5 nM | – | + | 63.053 | 54.213 | – | 51.372 | −11.130 | −2.291 | .550 | ~5 nM | 6 nM |
